# Values joined by “and” are separate entries in the source; they are usually repeats but may differ in a detail not shown here. Identical values can stand only once.
# Experiments:
# [1] = Ultrasound-triggered drug release from P-triblock P-105 micelles, real-time fluorescence detection; type: physicochemical; conditions: for Drug release: 10% P-triblock P-105 micelles, 37° C.; for Drug release (mean and s.d.): 10% P-triblock
# Excerpt: A custom ultrasonic exposure chamber with real-time fluorescence detection was used to measure acoustically-triggered drug release from P-triblock PLURONIC P-105 micelles under continuous wave (CW) or pulsed ultrasound in the frequency range of 20 kHz to 90 kHz. The measurements were based on the decrease in fluorescence intensity when drug was transferred from the micelle core to the aqueous environment. Two fluorescent drugs were used: doxorubicin (DOX) and its paramagnetic analogue, ruboxyl (Rb). P-triblock PLURONIC P-105 at various concentrations in aqueous solutions was used as a micelle-forming polymer. Drug release was highest at 20 kHz ultrasound and dropped with increasing ultrasonic frequency despite much higher power densities. […] The release of DOX was higher than that of Rb due to stronger interaction and deeper insertion of Rb into the core of the micelles. Drug release was higher at lower P-triblock concentrations, which presumably results from higher local drug concentrations in the core of P-triblock micelles when the number of micelles is low. At constant frequency, drug release increased with increasing power density. At constant power density and for pulse duration longer than 0.1 s, peak release under pulsed ultrasound was the same as stationary release under CW ultrasound.
# Fluorescence of the drug was excited at an excitation wavelength of 488 nm with an optical power of approximately 0.5 mW in a 2 mm diameter beam. At this light intensity no photobleaching was observed, based on the constant level of drug fluorescence during continuing irradiation for 8 hours. The drug release was quantified by measuring the changes in fluorescence emissions before, during, and after the ultrasound exposure. A fiberoptic probe (a sheathed bundle of multimode glass fibers, 3 mm entrance diameter, 0.6 numerical aperture, and 90 cm in length) was used to collect the fluorescence emission. The light passed through a dielectric bandpass filter with a 35 nm bandwidth centered at 535 nm (Omega Optical Model 535DF35) to a sensitive silicon detector (EG&G Model 450-1). The filter effectively cuts off emissions below 500 nm, including any Rayleigh-scattered laser light. The detector signal was digitized using a 12-bit AID converter (National Instruments) and sent, along with the digitized monitor photodetector signal, to a Macintosh computer for storage and processing. The analog outputs of both photodetectors were also plotted on a stripchart recorder. The temperature of the ultrasonic exposure chamber was maintained at 37° C. by circulating thermostated water throughout the sonicating bath.
# The experimental procedure is described below. First, fluorescence intensity of drug in phosphate buffered saline, PBS (FPBS) was measured; then, without any changes in the experimental setup, the PBS solution was carefully removed and replaced with the drug solution in P-triblock micelles. […] The base fluorescence of the micellar solution (Fmic) was measured, after which CW or pulsed ultrasound was turned on. During the “ultrasound on” phase, fluorescence dropped as shown in FIG. 19 due to drug release from the hydrophobic core of micelles into the aqueous environment.
# Digitized data were analyzed, to calculate the percentage of drug release from micelles. To reduce the noise, the data were Fourier transformed, and a small magnitude narrow band noise of unknown origin and its next three harmonics were filtered out. After Fourier filtering, the data were smoothed using a 10 point moving average. An example of the raw and filtered data is presented in FIG. 19 for DOX release from 10% P-triblock micelles.
# The percent of drug release was calculated assuming that Fmic-FPBS corresponds to 100% drug release:
# Release (%)=[(Fmic−Fus)/(Fmic−FPBS)]×100% (1)
# where Fus is fluorescence during exposure to ultrasound. […]
# [2] = tested on: blood proteins (albumin, fibrinogen); conditions: reported elsewhere [82]; cited from earlier work
# [3] = Rb localization in P-triblock micelles and P-gel nanoparticles (EPR and fluorescence); type: physicochemical
# Protocol: A dry powder of the EPR probe (16-DS) was incubated with unstabilized or stabilized micellar solutions of P-triblock for 15 mm under constant shaking. Unsolubilized probe was removed by centrifugation. The concentration of a solubilized probe was measured by the EPR. The same technique of probe introduction was used for pyrene. Water solubility of 16-DS or pyrene is very low and can be neglected. Dissolved probes are associated with P-triblock molecules and thus reflect the loading capacity, dynamics and environment of the latter. For a fluorescent drug, Rb, the same concentration of Rb (20 μg/ml) was introduced into non-stabilized and stabilized micellar P-triblock solutions at 37° C. from a stock solution. Because fluorescence of Rb within P-triblock micelles is much higher than outside micelles, the fraction of the drug within micelles can be estimated as
# where Fmes is a measured fluorescence intensity, Fm is Rb fluorescence intensity when all the drug is localized in the hydrophobic core of micelles (measured in a 20% P-triblock solution at 37° C.), Fs is fluorescence intensity in non-micellar solutions (i.e., in PBS), and am is the fraction of the drug located in the hydrophobic core of micelles.
# Rb was used as a spin- and fluorescent probe to monitor drug distribution in P-triblock micelles and P-gel nanoparticles.
# The anthraquinone part of Rb molecule is inherently fluorescent. Rb fluorescence is quenched in collisions with water molecules; when Rb molecules are screened from collisions with water, theft fluorescence increases manifold.
SMILES,"Drug release ([1]; 20 kHz, 0.033 W/cm^2) [%]","Drug release ([1]; 20 kHz, 0.047 W/cm^2) [%]","Drug release ([1]; 20 kHz, 0.058 W/cm^2) [%]","Drug release ([1]; 67 kHz, 0.15 W/cm^2) [%]","Drug release ([1]; 67 kHz, CW, 1.35 W/cm^2) [%]","Drug release ([1]; 67 kHz, CW, 1.66 W/cm^2) [%]","Drug release ([1]; 67 kHz, CW, 2.8 W/cm^2)","Drug release (mean and s.d.) ([1]; drug concentration 30 μg/ml, 67 kHz, 2.8 W/cm^2)","Drug release (mean and s.d.) ([1]; drug concentration 40 μg/ml, 67 kHz, 2.8 W/cm^2)","adsorption or binding to blood proteins (albumin, fibrinogen) [2]","overall fraction of the drug in the cores of P-gel nanoparticle ([3]; EPR, P-gel heated to 37° C.) [%]","fraction of rotationally restricted molecules ([3]; EPR, room temperature, 10% P-triblock solution without a hydrogel) [%]","fraction of rotationally restricted molecules ([3]; EPR, room temperature, 10% P-triblock/1% poly(NiPAAm) P-gel nanoparticles) [%]","fraction of Rb molecules localized in the hydrophobic environment of micelle cores ([3]; fluorescence, room temperature, 10% P-triblock solutions)","Drug Release from P-triblock Micelles ([1]; 20 kHz, 0.021 W/cm^2)","Drug Release from P-triblock Micelles ([1]; 90 kHz, 1.66 W/cm^2)"
"COc1cccc2c1C(=O)c1c(O)c3c(c(O)c1C2=O)C[C@@](O)(C(=O)CO)C[C@@H]3O[C@H]1C[C@H](N)[C@H](O)[C@H](C)O1 [DOX, doxorubicin]",4.6 ± 0.5,6.5 ± 1.1,9.2 ± 0.56,0,5.4 ± 2.3,8.1 ± 2.1,10.7 ± 0.8%,5.5%±1%,10%±1%,,,,,,,
"COc1cccc2c1C(=O)c1c(O)c3c(c(O)c1C2=O)C[C@@](O)(/C(C)=N/N=C1CC(C)(C)N(O)C(C)(C)C1)C[C@@H]3O[C@H]1C[C@H](N)[C@H](O)[C@H](C)O1.Cl [Rb, Ruboxyl]",,,,,0.8 ± 0.25,3.2 ± 0.9,5.5% and 5.5 ± 1.5%,,,negligible,73,71,78,about 70%,Traces,traces
